The source of these data is patent publication US7098206B2, “Pharmaceutically active morpholinol” (SmithKline Beecham Corporation, priority 1998, dated 2006).

The test system of series [1] is TBZ-induced behavioural depression. In words: Tetrabenazine-induced behavioural depression. As to conditions: for effect on tetrabenazine-induced behavioural depression: 25 mg/kg (ip), FIG. 1; for dose-effect against TBZ-induced depression: 30 minutes prior to TBZ, n=6, FIGS. 2 and 3. The format is in vivo, Male, CD-1 Mice. As for the experimental part:
FIG. 2. Dose Response of Compound of Formula I Against TBZ-Induced Depression (Compounds administered 30 minutes prior to TBZ, Male, CD-1 Mice, i.p., n=6).
FIG. 3. Dose Response of Compound of Formula II Against TBZ-Induced Depression (Compounds administered 30 minutes prior to TBZ, Male, CD-1 Mice, i.p., n=6).
Tetrabenazine(TBZ)-induced behavioural depression was used as an in vivo measure of antidepressant activity. The test has been validated with a wide range of antidepressants, known to act through noradrenergic mechanisms (Cooper B. R. et al, “Animal models used in the prediction of antidepressant effects in man”, J. Clin. Psychiatry 44: 63–66, 1983). Moreover, the test was also used to identify Wellbutrin® as an anti-depressant. Briefly, animals were injected with the candidate agent (p.o. or i.p.) 30 minutes before receiving an i.p. injection of tetrabenazine (35 mg/kg, as the HCl salt—prepared fresh for each use). Assessments were performed 30 minutes thereafter and included: locomotor activity (1–4 scale); ptosis (1–4 scale) and body temperature as described previously (Cooper, B. R., J. L. Howard, and F. E. Soroko, Animal models used in prediction of antidepressant effects in man (Journal of Clinical Psychiatry, 44: p. 63–6, 1983). In all studies, the scientist performing the assessments was blind to the treatments. All parameters were weighted equally to give a “lumped” score (X) through the following algorithm: X=(1+Ptosis score)/(Activity score*[Temp,treated/Temp,control]

The nature of series [2]: Dose-ranging safety study: serious adverse events (seizures and deaths). The format is in vivo. The settings on record: for seizures observed, in words: 100 mg/kg p.o. As for the experimental part: Additional dose-ranging studies were performed to determine the range of safe doses for the isomers and the racemate. […]
The target in series [3] is T1, dopamine uptake, synaptosomes from rat caudoputamen (Rattus norvegicus, UniProt P23977).
T1 construct: Synaptosomes for use in obtaining in vitro uptake data were prepared from hypothalamus or striatum by gently homogenizing the tissue; from tissue; host or cells: rat caudoputamen (striatum) synaptosomes
As to the kind of experiment: In vitro synaptosomal [3H]-dopamine uptake. The format is biochemical. The settings on record: for IC50: rat caudoputamen synaptosomes. The source says: (§1) Similarities and differences. Molecular Pharmacology, 21: p.

For series [4], the target named is T2, noradrenaline (NA) uptake, synaptosomes from rat hypothalamus (Rattus norvegicus, UniProt Q63380).
T2 construct: Synaptosomes for use in obtaining in vitro uptake data were prepared from hypothalamus or striatum by gently homogenizing the tissue; from tissue; host or cells: rat hypothalamus synaptosomes
As to the kind of experiment: In vitro synaptosomal [3H]-noradrenaline uptake. The format is biochemical. The settings on record: for IC50: rat hypothalamus synaptosomes.
Text: as §1

For series [5], the target named is T3, serotonin uptake, synaptosomes from rat hypothalamus (Rattus norvegicus, UniProt P31652). As to conditions: at 30 mM (so in the source).
Description: (§2) In vitro uptake was determined, as reported previously, using synaptosomes prepared from rat caudoputamen (for dopamine uptake) and hypothalamus (for NA and serotonin uptake) using [^3H]-dopamine, [^3H]-NA and [^3H]-serotonin as transport substrates, respectively.
(§3) Synaptosomes for use in obtaining in vitro uptake data were prepared from hypothalamus or striatum by gently homogenizing the tissue in a 0.3 M sucrose/25 mM Tris pH 7.4 buffer containing iproniazid phosphate to inhibit monoamine oxidase. The homogenate was centrifuged at 1100×g at 4° C. for 10 min and the supernatant was used for uptake studies. […] Under these conditions uptake was linear with respect to both for substrate and tissue (with <5% total substrate transported). Non-specific uptake was defined as uptake at 0° C. [^3H]-substrate, which had been transported into synaptosomes, was separated from free [^3H]-substrate by filtration over GF/B filters and washing with cold Krebs-Henseleit buffer. The filters were counted for tritum in a liquid scintillation spectrometer.
For series [6], the target named is T3, serotonin uptake, synaptosomes from rat hypothalamus. In words: biochemical.
Description: as §2, §3
The test system of series [7] is CCI-induced decrease in mechanical paw withdrawal threshold. In words: Chronic constriction injury model of mononeuropathy. The format is in vivo, male Random Hooded rats. The settings on record: CCI rats, FIG. 6. The source says:
Mononeuropathy was reproduced in male Random Hooded rats (180–250 g) using the Chronic Constriction Injury (CCI) model as described by Bennett and Xie (1988). Under Isoflurane anaesthesia, the common left sciatic nerve of the rats was exposed at mid thigh level. Four ligatures of Chromic gut (4.0) were tied loosely around the nerve with a 1 mm spacing between each. The wound was then closed and secured with suture staples. The surgical procedure was identical for the sham operated animals except the sciatic nerve was not ligated. The animals were allowed a period of 12 days to recover from the surgery before any behavioural testing began.
The effect of the compound of formula (I) (administered as the hydrochloride salt at 20 mgkg^−1 t.i.d. p.o. chronically for a period of 7 days) on CCI-induced decrease in mechanical paw withdrawal threshold was measured using an algesymeter (Randall & Selitto, 1957).

In series [8] the test system is MPTP-induced Parkinsonian marmosets. As to the kind of experiment: MPTP-treatment Parkinson's disease model. The format is in vivo. The settings on record: hydrochloride salt, once weekly by oral gavage, MPTP-treated marmosets. The method, then:
Locomotor deficits and motor disability were induced in marmosets by the administration of MPTP 2 mg/kg sc on five consecutive days. After the acute effects of MPTP administration had been overcome, bradykinesia, rigidity and loss of vocalisation remained. The compound of formula (I) (as its hydrochloride salt) was administered once weekly by oral gavage, freshly dissolved in 10% sucrose solution with dosages calculated as the free base. […] Assessment of motor disablities was by an observer through a one-way mirror: alertness, checking movements, posture, balance/co-ordination, reaction, vocalisation and motility were each scored. A score of zero indicated a “normally” behaing animal, while a maximum total score of 18 in the monitoring period indicated a severely disabled animal.

Series [9] relates to sexual behaviour of male mice. As to the kind of experiment: Mouse sexual behaviour model. The format is in vivo, mice (C57BL/6 inbred strain). The settings on record: hydrochloride salt. The method, then:
Male (10 weeks old) and female (8 weeks old) mice (C57BL/6 inbred strain, Charles River, Como (Italy) that had no reproductive or copulatory experience were used in the study. Females were brought into behavioral oestrus with s.c. injections of 0.03 mg estradiol benzoate approximately 48 hr before testing and 0.1 mg progesterone, in sesame oil, 4 hr before testing.
The compound of formula (I) (as its hydrochloride salt) was dissolved in saline to provide a solution for intraperitoneal injection at a dose of 3 mg/kg, with a dose volume of 10 ml/kg. Dosing was performed one hour prior to the test.
Tests were conducted in Perspex arenas, 30 cm in diameter and 50 cm high, which were placed in the cage in which males had been placed individually one day prior to test. The sexual behaviour was filmed remotely under red light for 30 min using a video camera and recorder, the test starting immediately after placing a female mouse into the male's cage. Behavior parameters recorded were (i) the extent of male/female interaction, (ii) the extent of genital sniffing, and (iii) the mount frequency (the number of male mounts).

[10] abbreviates: read-out: IC50, [3H]-Dopamine Uptake.
Setting [11] is: 3 mg/kg intraperitoneal, one hour prior to 30 min test.
Setting [12] is: intraperitoneal injection, versus control.

SMILES strings stand for the structures. Where two headings read alike, the source gives them in different places.

T3 sequence (P31652 whole entry): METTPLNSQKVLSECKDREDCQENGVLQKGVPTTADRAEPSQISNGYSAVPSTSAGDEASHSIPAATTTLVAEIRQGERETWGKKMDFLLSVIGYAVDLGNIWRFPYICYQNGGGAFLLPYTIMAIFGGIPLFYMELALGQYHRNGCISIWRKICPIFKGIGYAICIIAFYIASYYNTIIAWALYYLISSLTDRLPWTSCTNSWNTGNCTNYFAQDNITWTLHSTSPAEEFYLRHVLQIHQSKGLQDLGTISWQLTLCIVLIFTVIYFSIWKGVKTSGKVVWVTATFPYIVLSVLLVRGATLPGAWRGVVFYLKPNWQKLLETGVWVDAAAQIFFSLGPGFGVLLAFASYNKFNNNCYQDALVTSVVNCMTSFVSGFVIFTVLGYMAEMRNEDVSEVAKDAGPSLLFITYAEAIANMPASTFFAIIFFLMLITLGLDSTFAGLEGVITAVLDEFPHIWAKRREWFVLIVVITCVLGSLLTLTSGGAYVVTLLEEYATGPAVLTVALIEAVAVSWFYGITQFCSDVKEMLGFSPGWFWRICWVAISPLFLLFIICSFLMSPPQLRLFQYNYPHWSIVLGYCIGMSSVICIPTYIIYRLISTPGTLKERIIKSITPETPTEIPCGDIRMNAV
T1 sequence (P23977 whole entry): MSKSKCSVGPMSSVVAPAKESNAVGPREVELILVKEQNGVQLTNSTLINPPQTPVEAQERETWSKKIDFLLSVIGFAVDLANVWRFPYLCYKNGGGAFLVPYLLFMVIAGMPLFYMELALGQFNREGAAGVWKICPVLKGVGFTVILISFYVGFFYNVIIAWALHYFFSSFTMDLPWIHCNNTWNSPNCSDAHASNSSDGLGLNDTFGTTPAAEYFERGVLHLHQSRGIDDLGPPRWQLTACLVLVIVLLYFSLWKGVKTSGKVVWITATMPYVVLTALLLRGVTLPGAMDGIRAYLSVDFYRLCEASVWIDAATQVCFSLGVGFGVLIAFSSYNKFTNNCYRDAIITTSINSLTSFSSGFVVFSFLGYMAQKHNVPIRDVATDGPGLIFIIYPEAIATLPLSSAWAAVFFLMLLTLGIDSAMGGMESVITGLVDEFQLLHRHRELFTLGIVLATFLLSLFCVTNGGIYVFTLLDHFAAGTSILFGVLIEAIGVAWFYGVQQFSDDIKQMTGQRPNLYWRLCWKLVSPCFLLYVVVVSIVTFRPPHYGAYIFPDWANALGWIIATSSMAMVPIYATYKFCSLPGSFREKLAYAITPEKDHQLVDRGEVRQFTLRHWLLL
T2 sequence (Q63380 1-617): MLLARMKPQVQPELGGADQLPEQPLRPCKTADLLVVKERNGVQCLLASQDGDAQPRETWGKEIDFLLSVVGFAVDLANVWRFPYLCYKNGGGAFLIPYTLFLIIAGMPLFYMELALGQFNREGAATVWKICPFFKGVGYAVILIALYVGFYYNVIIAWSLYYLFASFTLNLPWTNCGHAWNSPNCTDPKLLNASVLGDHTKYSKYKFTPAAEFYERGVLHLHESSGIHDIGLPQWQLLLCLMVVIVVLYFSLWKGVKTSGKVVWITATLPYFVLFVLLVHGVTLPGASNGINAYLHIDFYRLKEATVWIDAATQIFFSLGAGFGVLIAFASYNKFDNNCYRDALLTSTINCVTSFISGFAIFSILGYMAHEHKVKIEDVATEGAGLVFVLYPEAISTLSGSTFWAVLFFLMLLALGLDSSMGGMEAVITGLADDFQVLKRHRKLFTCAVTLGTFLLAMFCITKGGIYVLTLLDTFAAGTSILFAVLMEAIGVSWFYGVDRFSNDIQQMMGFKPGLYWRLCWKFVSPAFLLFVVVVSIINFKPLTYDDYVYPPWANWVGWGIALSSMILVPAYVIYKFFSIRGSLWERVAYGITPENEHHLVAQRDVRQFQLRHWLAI

As for `CC1NC(C)(C)COC1(O)c1cccc(Cl)c1` (stereo not drawn) [Racemate, (+/−)-(2R*,3R*)-2-(3-chlorophenyl)-3,5,5-trimethyl-2-morpholinol], the “effect on tetrabenazine-induced behavioural depression” value in series [1] is listed as “abolished the tetrabenazine-induced behavioural depression”.
Consider `CC1NC(C)(C)COC1(O)c1cccc(Cl)c1.Cl` (racemic) [Racemate, (+/−)-(2R*,3R*)-2-(3-chlorophenyl)-3,5,5-trimethyl-2-morpholinol], for which, in [2], the “seizures observed, in words” value is listed as “seizures were observed”. Also, in series [2] (i.p., 100 mg/kg), the “% Died” value is reported as 20%, the “Seizures (%)” value was determined as 100%, the “Time to Death” value stood at 14 min and the “Time to Seizures” value was 3 min. In series [2] (i.p., 300 mg/kg), the “% Died” value was 100%, the “Seizures (%)” value stood at 100%, the “Time to Death” value is reported as 3 min and the “Time to Seizures” value was 3 min. In addition, in series [2] (p.o., 100 mg/kg), the “% Died” value was 0%, the “Seizures (%)” value was found to be 100% and the “Time to Seizures” value worked out at 9.2 min. In [2] (p.o., 300 mg/kg), the “% Died” value came out at 80%, the “Seizures (%)” value is 100%, the “Time to Death” value turned out to be 7 min and the “Time to Seizures” value is recorded as 6.8 min.
For orientation: IC50 means the midpoint of a concentration-inhibition curve. Regarding `CC(NC(C)(C)C)C(=O)c1cccc(Cl)c1.Cl` (racemic) [Bupropion, (±)-1-(3-chlorophenyl)-2-[(1,1-dimethylethyl)amino]-1-propanone hydrochloride], the “effect on tetrabenazine-induced behavioural depression” value in series [1] is recorded as “abolished the tetrabenazine-induced behavioural depression”. Besides, the IC50 came out at 1.9 µM in [3] (setting [10]) and 2.2 µM in series [4].
On to `CN(C)CCC=C1c2ccccc2CCc2ccccc21` [amitryptyline], for which the “effect on tetrabenazine-induced behavioural depression” value in series [1] was “abolished the tetrabenazine-induced behavioural depression”.
Regarding `C[C@H]1NC(C)(C)CO[C@]1(O)c1cccc(Cl)c1` (single isomer, unassigned) [Formula (II)], the “effect on tetrabenazine-induced behavioural depression” value in [1] was “only modest activity”. In addition, in series [1] (50 mg/kg, i.p., FIG. 3), the “effect on TBZ-induced depression at the top dose” value is reported as “appeared to worsen the animal's condition”. For the same molecule, the “dose-effect against TBZ-induced depression” value in [1] (i.p.) is reported as “did not possess dose-related activity”. In addition, the “inhibition of dopamine (DA) uptake at a fixed concentration” value in series [3] (at 30 μM) is “inactive”. Further, the IC50 in [3] (setting [10]) was greater than 100 µM; in series [4], greater than 30 µM; in [6], greater than 100 µM. Also, the “inhibition of noradrenaline (NA) uptake at a fixed concentration” value in [4] (at a concentration of 30 μM) is “ineffective”. For the same molecule, the “inhibition of serotonin uptake at a fixed concentration” value in series [5] is on record as “Neither compound inhibited serotonin uptake”. Moreover, the “seizures observed, in words” value in series [2] is “seizures were observed”. For the same molecule, the “% Died” value in [2] (i.p., 100 mg/kg) was 100%; in [2] (i.p., 300 mg/kg), 100%; in series [2] (p.o., 100 mg/kg) it was 0%; in [2] (p.o., 300 mg/kg) it was 100%. For the same molecule, the “Seizures (%)” value in [2] (i.p., 100 mg/kg) was determined as 20%; in series [2] (i.p., 300 mg/kg) it was 100%; in [2] (p.o., 100 mg/kg), 100%; in series [2] (p.o., 300 mg/kg) it was 100%. In addition, the “Time to Death” value in series [2] (i.p., 100 mg/kg) is listed as 7 min; in [2] (i.p., 300 mg/kg) it was 6 min; in [2] (p.o., 300 mg/kg) it was 7 min. In addition, the “Time to Seizures” value was 5 min in series [2] (i.p., 100 mg/kg); 1.1 min in series [2] (i.p., 300 mg/kg); 7.2 min in series [2] (p.o., 100 mg/kg); 6.8 min in series [2] (p.o., 300 mg/kg).
With `C[C@@H]1NC(C)(C)CO[C@@]1(O)c1cccc(Cl)c1` (single isomer, unassigned) [Formula (I)], the “mechanical paw withdrawal threshold on cessation of treatment” value in series [7] (after 20 mgkg−1 t.i.d. p.o. for 7 days) was “falling back towards CCI-operated vehicle-treated levels”. For the same molecule, the “mechanical paw withdrawal threshold during chronic dosing” value in series [7] (hydrochloride salt, 20 mgkg−1 t.i.d. p.o. for 7 days) is on record as “reversal was maintained throughout the chronic dosing period”. Further, the “mechanical paw withdrawal threshold after a single dose” value in [7] (hydrochloride salt, single dose 20 mgkg−1 p.o.) was “immediate reversal of the fall in paw withdrawal threshold back towards sham operated levels”. The “effect on tetrabenazine-induced behavioural depression” value in [1] was “abolished the tetrabenazine-induced behavioural depression”. The “dose-effect against TBZ-induced depression” value in series [1] (i.p.) is “sharp increase in activity between 3 mg/kg and 6 mg/kg”. Also, the locomotor deficits result in [8] (FIG. 4) is given as “reversed the locomotor deficits”. Further, the motor disability entry in [8] (FIG. 5) is reported as “reversed”. Moreover, in series [3] (IC50, [3H]-Dopamine Uptake), the IC50 is roughly 10 µM. Moreover, the IC50 in [3] (setting [10]) stood at 9.3 µM. Also, the “potency as inhibitor of dopamine uptake, fold less potent” value in [3] (unlike Wellbutrin, comparison as worded) is listed as “approximately 10 fold”. Besides, the “potency as NA inhibitor relative to Wellbutrin” value in series [4] (versus Wellbutrin) is “approximately twice as potent”. Besides, the “inhibition of serotonin uptake at a fixed concentration” value in series [5] is recorded as “Neither compound inhibited serotonin uptake”. In [9] (setting [11]), the M/F interaction entry is listed as “*228.8 ± 30.3 sec”; the “Mount frequency, No. of events ± SEM” value is listed as 6.6 ± 1.7; the “Time spent in genital sniffing” value is “*203.6 ± 30.1 sec”. Besides, in [9] (setting [12]), the “genital sniffing, change in words” value is “statistically significant (unpaired t-test) increase”; the “male/female interaction, change in words” value was “statistically significant (unpaired t-test) increase”; the “mount frequency, change in words” value was “trend towards increasing mount frequency”. In [2] (i.p., 100 mg/kg), the “% Died” value is 0%, the “Seizures (%)” value was 100% and the “Time to Seizures” value is 3.93 min. Moreover, in series [2] (i.p., 100 mg/kg, listed as compound of formula I), the “% Died” value is “No deaths were observed”. In addition, in series [2] (i.p., 300 mg/kg), the “% Died” value was 100%, the “Seizures (%)” value is listed as 100%, the “Time to Death” value is given as 6 min and the “Time to Seizures” value was determined as 3.95 min. Also, in series [2] (p.o., 100 mg/kg), the “% Died” value was 0% and the “Seizures (%)” value worked out at 0%. Besides, in [2] (p.o., 300 mg/kg), the “% Died” value is listed as 0%, the “Seizures (%)” value came out at 100% and the “Time to Seizures” value turned out to be 11.23 min. Also, in series [2] (p.o., 300 mg/kg, listed as compound of formula I), the “% Died” value is listed as “no deaths were observed”. The molecule also gave an IC50 in series [6] greater than 30 µM.
